Test results published in article PMC11510805, “In Vivo Effects of a GHR Synthesis Inhibitor During Prolonged Treatment in Dogs” (Pharmaceuticals, 2024).

Key:
CYP2C8 = target: T1, CYP2C8 (Homo sapiens, UniProt P10632); details: human liver microsomes
T1 sequence (P10632 1-490): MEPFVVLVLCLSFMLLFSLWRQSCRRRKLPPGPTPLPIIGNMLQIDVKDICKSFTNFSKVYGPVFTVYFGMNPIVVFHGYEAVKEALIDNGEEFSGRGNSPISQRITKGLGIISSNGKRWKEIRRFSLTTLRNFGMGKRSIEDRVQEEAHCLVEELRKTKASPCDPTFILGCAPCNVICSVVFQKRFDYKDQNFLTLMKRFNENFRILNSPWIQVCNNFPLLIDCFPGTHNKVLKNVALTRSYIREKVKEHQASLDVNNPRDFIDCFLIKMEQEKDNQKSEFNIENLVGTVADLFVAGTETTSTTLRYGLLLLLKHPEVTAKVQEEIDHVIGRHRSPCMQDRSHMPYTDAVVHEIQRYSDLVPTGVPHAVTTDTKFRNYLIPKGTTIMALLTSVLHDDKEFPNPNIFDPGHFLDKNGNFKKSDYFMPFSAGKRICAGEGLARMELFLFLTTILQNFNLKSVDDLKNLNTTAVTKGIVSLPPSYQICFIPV

CYP2C19 = CYP2C19 (Homo sapiens, UniProt P33261); details: human liver microsomes
CYP2C19, sequence (P33261 whole entry): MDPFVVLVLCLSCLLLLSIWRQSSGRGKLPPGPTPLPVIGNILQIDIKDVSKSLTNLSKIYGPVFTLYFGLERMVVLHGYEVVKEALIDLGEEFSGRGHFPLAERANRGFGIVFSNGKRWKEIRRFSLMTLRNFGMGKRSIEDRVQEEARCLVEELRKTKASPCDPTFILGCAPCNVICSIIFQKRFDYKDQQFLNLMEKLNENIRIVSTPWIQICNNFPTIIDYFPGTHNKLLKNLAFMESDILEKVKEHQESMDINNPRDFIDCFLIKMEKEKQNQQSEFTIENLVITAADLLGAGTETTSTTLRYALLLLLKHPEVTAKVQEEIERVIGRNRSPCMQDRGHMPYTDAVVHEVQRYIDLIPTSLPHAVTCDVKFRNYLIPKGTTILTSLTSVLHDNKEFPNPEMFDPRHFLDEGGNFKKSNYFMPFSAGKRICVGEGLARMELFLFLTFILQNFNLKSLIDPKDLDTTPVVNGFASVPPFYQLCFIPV

CYP2C8 Imax of reference inhibitor (CYP2C8) [%] | CYP2C19 Imax of reference inhibitor (CYP2C19) [%] | Compound
88 |  | O=c1c(O)c(-c2ccc(O)c(O)c2)oc2cc(O)cc(O)c12 [Quercetin]
 | 87 | C=C(C)[C@@H]1CCC2=CC(=O)C[C@@H](C)[C@]2(C)C1 [Nootkatone]
